Consider 3 compounds from ChEMBL document CHEMBL5303573, “Mapping human microbiome drug metabolism by gut bacteria and their genes” (Nature, 2019).

Molecules are shown by their SMILES.

Data set [1] can be described thus: The drug is tested on Clostridium sporogenes strain: ATCC15579 for biotransformation. The drug concentrations were measured before and after a 12-h incubation by liquid-chromatography-coupled mass spectrometry (LC–MS). Conditions: 2 µM.
The conditions of data set [2]: bifidobacterium adolescentis, 12 h, 2 µM.
Description: The drug is tested on Bifidobacterium adolescentis strain: ATCC 15703 for biotransformation. The drug concentrations were measured before and after a 12-h incubation by liquid-chromatography-coupled mass spectrometry (LC–MS)
The conditions of data set [3]: bacteroides fragilis, 12 h, 2 µM.
Description: The drug is tested on Bacteroides fragilis strain: NCTC 9343 for biotransformation. The drug concentrations were measured before and after a 12-h incubation by liquid-chromatography-coupled mass spectrometry (LC–MS)
Data set [4] can be described thus: The drug is tested on Eubacterium hallii strain: DSM3353 for biotransformation. The drug concentrations were measured before and after a 12-h incubation by liquid-chromatography-coupled mass spectrometry (LC–MS). Conditions: anaerobutyricum hallii, 2 µM.
Data set [5] can be described thus: The drug is tested on Ruminococcus lactaris strain: ATCC29176 for biotransformation. The drug concentrations were measured before and after a 12-h incubation by liquid-chromatography-coupled mass spectrometry (LC–MS). The settings on record: 2 µM.
Data set [6] can be described thus: The drug is tested on Collinsella aerofaciens strain: ATCC25986 for biotransformation. The drug concentrations were measured before and after a 12-h incubation by liquid-chromatography-coupled mass spectrometry (LC–MS). The settings on record: 2 µM.
Data set [7] in a line: The drug is tested on Bifidobacterium longum subsp. Infantis strain: CCUG52486 for biotransformation. The drug concentrations were measured before and after a 12-h incubation by liquid-chromatography-coupled mass spectrometry (LC–MS). Conditions: 2 µM.
Data set [8] is described as follows: The drug is tested on Bacteroides ovatus strain: ATCC8483 for biotransformation. The drug concentrations were measured before and after a 12-h incubation by liquid-chromatography-coupled mass spectrometry (LC–MS). The settings on record: 2 µM.
A short description of data set [9]: The drug is tested on Clostridium scindens strain: ATCC35704 for biotransformation. The drug concentrations were measured before and after a 12-h incubation by liquid-chromatography-coupled mass spectrometry (LC–MS). The settings on record: 2 µM.
The conditions of data set [10]: bacteroides thetaiotaomicron, 12 h, 2 µM.
Description: The drug is tested on Bacteroides thetaiotaomicron strain: 3731 for biotransformation. The drug concentrations were measured before and after a 12-h incubation by liquid-chromatography-coupled mass spectrometry (LC–MS)
The nature of data set [11]: The drug is tested on Blautia luti strain: DSM14534 for biotransformation. The drug concentrations were measured before and after a 12-h incubation by liquid-chromatography-coupled mass spectrometry (LC–MS). It counts as ADME. Also on record: dose 2 uM, timepoint 0 vs 12 hours. The settings on record: 2 µM.
A short description of data set [12]: The drug is tested on Clostridium sp. strain: fecal isolate for biotransformation. The drug concentrations were measured before and after a 12-h incubation by liquid-chromatography-coupled mass spectrometry (LC–MS). The settings on record: 2 µM.
Data set [13] can be described thus: The drug is tested on Eubacterium ventriosum strain: ATCC27560 for biotransformation. The drug concentrations were measured before and after a 12-h incubation by liquid-chromatography-coupled mass spectrometry (LC–MS). More on the design: dose 2 uM, timepoint 0 vs 12 hours. The data set is classed as ADME. Conditions: 2 µM.
Data set [14] is described as follows: The drug is tested on Bifidobacterium breve strain: DSM20213 for biotransformation. The drug concentrations were measured before and after a 12-h incubation by liquid-chromatography-coupled mass spectrometry (LC–MS). The settings on record: 2 µM.
A short description of data set [15]: The drug is tested on Bifidobacterium ruminantium strain: fecal isolate for biotransformation. The drug concentrations were measured before and after a 12-h incubation by liquid-chromatography-coupled mass spectrometry (LC–MS). Conditions: 2 µM.
The conditions of data set [16]: bacteroides fragilis, 12 h, 2 µM. The source holds these as a separate data set.
Description: The drug is tested on Bacteroides fragilis strain: 3397 (T10) for biotransformation. The drug concentrations were measured before and after a 12-h incubation by liquid-chromatography-coupled mass spectrometry (LC–MS)
The nature of data set [17]: The drug is tested on Ruminococcus torques strain: ATCC27756 for biotransformation. The drug concentrations were measured before and after a 12-h incubation by liquid-chromatography-coupled mass spectrometry (LC–MS). The settings on record: 2 µM. More on the design: dose 2 uM, timepoint 0 vs 12 hours. The data set is classed as ADME.
For data set [18] the following is noted: roseburia intestinalis, 12 h, 2 µM.
Description: The drug is tested on Roseburia intestinalis strain: L1-82 for biotransformation. The drug concentrations were measured before and after a 12-h incubation by liquid-chromatography-coupled mass spectrometry (LC–MS)
Data set [19] is described as follows: The drug is tested on Bacteroides dorei strain: DSM17855 for biotransformation. The drug concentrations were measured before and after a 12-h incubation by liquid-chromatography-coupled mass spectrometry (LC–MS). Conditions: phocaeicola dorei, 2 µM.

Regarding `CC(N)C12CC3CC(CC(C3)C1)C2` (stereo unspecified) [RIMANTADINE], the “Bacterial Biotransformation” value in data set [1], in data set [2], in [3], in data set [4], in data set [5] and in data set [6] was “Compound NOT metabolized” each time. Further, the “Bacterial Biotransformation” value in data set [7], in [8], in data set [9], in data set [10], in [11] and in data set [12] was “Compound NOT metabolized” each time. In addition, the “Bacterial Biotransformation” value in [13], in data set [14], in [15], in data set [16], in data set [17] and in [18] was “Compound NOT metabolized” throughout.
For `Cc1ccc(S(=O)(=O)NC(=O)NN2CCCCCC2)cc1` [TOLAZAMIDE], the “Bacterial Biotransformation” value in data set [2] is listed as “Compound NOT metabolized”; in data set [3], “Compound metabolized”; in data set [4], “Compound metabolized”; in data set [5] it was “Compound NOT metabolized”; in data set [7] it was “Compound metabolized”; in data set [8], “Compound metabolized”. In addition, the “Bacterial Biotransformation” value is on record as “Compound NOT metabolized” in data set [9]; “Compound metabolized” in data set [10]; “Compound metabolized” in data set [19]; “Compound NOT metabolized” in [11]; “Compound metabolized” in [12]; “Compound NOT metabolized” in data set [13]. The “Bacterial Biotransformation” value is “Compound NOT metabolized” in data set [14]; “Compound metabolized” in data set [15]; “Compound metabolized” in [16]; “Compound NOT metabolized” in data set [17]; “Compound NOT metabolized” in data set [18].
For `CCOC(=O)C1=C[C@]2(CC)CCCN3CCc4c(n1c1ccccc41)[C@@H]32` [VINPOCETINE], the “Bacterial Biotransformation” value in data set [1], in [2], in data set [3], in [4], in data set [5] and in [6] was “Compound NOT metabolized” throughout. In addition, the “Bacterial Biotransformation” value in [7] is “Compound NOT metabolized”; in data set [8], “Compound NOT metabolized”; in [9], “Compound NOT metabolized”; in data set [10], “Compound NOT metabolized”; in data set [11] it was “Compound NOT metabolized”; in data set [12], “Compound metabolized”. In addition, the “Bacterial Biotransformation” value in [13], in data set [14], in data set [15] and in data set [16] was “Compound NOT metabolized” each time.
